Measurements taken from publication PMC12664080, “Tetrazole-containing naphthalene bis-sulfonamide Keap1-Nrf2 interaction inhibitors with unexpected binding modes” (Redox Biology, 2025).

Columns and labels:
[1] = molecular target: T1, Keap1 Kelch domain (Homo sapiens, UniProt Q14145); assay: Fluorescence polarisation (FP) competition assay; format: binding
T1 construct: made in house
Experimental: The FP assays were carried out according to previously described methods [[23],[31], [32], [33], [34]]. […] Following incubation under slow agitation (30 min at rt in the absence of light), the plates were transferred to a PHERAstar microplate reader and the FP was recorded. All measurements were recorded in triplicate. The data were normalised to the control and then fitted to a standard four-parameter logistic function using the Origin Pro software.

[2] = test system: Nrf2 target genes; assay: Gene expression analysis (real-time quantitative PCR) in Hepa1c1c7 cells; format: cell-based, mouse; conditions: 16-h incubation, 10 μM or 50 μM
Experimental: Hepa1c1c7 cells (5 × 10^5 cells/well, n = 3) were seeded on six-well plates, and on the next day were treated with compound 25 (10 μM or 50 μM) or vehicle (0.1 % DMSO) for 16 h. After two washes with PBS, the cells were lysed. RNA was then extracted, cDNA was synthesised, and the levels of mRNA for each gene were determined by real-time quantitative PCR (TaqMan). The levels of 18S mRNA in each sample were used as a control for normalization.

[3] = molecular target: T1, Keap1 Kelch domain; assay: Differential scanning fluorimetry (DSF) thermal shift assay; format: binding; conditions: 10 μM compound; Keap1 vehicle control Ti = 61.3 ± 0.3 °C
Experimental: The DSF assays were carried out according to the previously described method. Solutions of the Keap1 Kelch domain protein (5 μM final concentration) and the small molecule inhibitor (10 μM final concentration) were prepared in DPBS at pH 7.4 (10 % final DMSO concentration, 20 μL final volume) in an Eppendorf tube. The solution was centrifuged briefly (1500 rpm, 60 s) to remove any particulates and mix the samples, followed by a 30 min incubation at RT. The samples were loaded into Tycho NT.6 capillaries (Nanotemper) in triplicate and positioned in the […] instrument. […] The fluorescence ratio vs temperature was plotted and the inflection temperature (Ti) of the profile was recorded. Changes in inflection (ΔTi) for the inhibitors were calculated by subtracting the mean Ti of the Keap1 sample plus vehicle from the mean Keap1 plus binder value (n = 3).

[4] = test system: NQO1; assay: NQO1 induction assay in Hepa1c1c7 cells; format: cell-based, mouse
Experimental: The method using Hepa1c1c7 cells has been described previously. Briefly, cells were seeded into 96-well plates (2 × 10^4 cells/200 μL per well) then incubated overnight at 37 °C. The cells were treated with compound (10 μM final concentration) or vehicle (final DMSO concentration 0.1 % DMSO) and incubated for a further 24 h or 48 h. The culture medium was aspirated and the cells treated with lysis buffer (50 μL per well, 0.1 % Tween 20 in 2 mM EDTA (pH 7.5)) then agitated for 15 min. Enzyme reaction mixture was added to each well (200 μL of 25 mM Tris buffer (pH 7.5) containing BSA (0.067 %), Tween20 (0.01 %), FAD (5 μM), G6P (1 mM), NADP (30 μM), G6P dehydrogenase (40 units), MTT (0.03 %), menadione (50 μM)) for 5 min then stop solution was applied (40 μL of 10 % SDS, final concentration 1.5 % SDS). Following brief agitation of the plate, the absorbance at 595 nm was measured. The background optical density was measured from wells containing tissue culture medium, lysis buffer, enzyme and stop solutions in the absence of Hepa1c1c7 cells. The change in background-corrected NQO1 activity (change in optical density) relative to the control was determined for each compound.

[5] = test system: Nrf2; assay: Nrf2 luciferase reporter assay (MCF7 ARE-luciferase reporter cell line); format: cell-based; conditions: Homo sapiens, MCF7 cells
Experimental: The induction of luciferase activity in the stably transfected MCF7 ARE-luciferase reporter cell line was measured using an adaptation of a published procedure. […] The cells were treated with compound or vehicle control (1 % final DMSO concentration) and incubated for a further 24 h. The culture medium was aspirated and the cells were washed with 100 μL per well PBS. The cells were lysed using 75 μL per well lysis buffer (0.2 % Triton X-100 in 25 mM Tris pH 7.5) under gentle agitation at rt for 30 min. The samples were transferred to 500 μL Eppendorf tubes and centrifuged at 10000 g for 5 min at 4 °C. 50 μL of supernatant from each sample were transferred to a new 96 well plate. 50 uL of working reagent (100 mM Tris pH 8.0, 5 mM MgCl2, 100 μM coenzyme A, 80 μM luciferin, and 5 mM ATP) were added to each well and the luciferase activity was measured.

[6] = test system: Keap1-mCherry; assay: Keap1-Glow Cellular Thermal Shift Assay (CETSA), U2OS cell lysates; format: cell-based; conditions: 10 μM, 1 h at 37 °C
Experimental: U2OS FRT/TO cells with doxycycline-inducible expression of Keap1-mCherry or mCherry were treated with 0.5 μg/mL of doxycycline for 72–96 h to induce the expression of the fluorescent proteins. Lysates of U2OS cells with doxycycline-inducible expression of Keap1-mCherry or mCherry were prepared by lysing in DPBS with EDTA-free protease inhibitor cocktail (PIC) using at least 22 strokes of the Dounce homogenizer. The lysates were cleared by centrifugation at 9600×g for 5 min at 22 °C and incubated with 10 μM compound 25 or vehicle (0.4 % DMSO) for 1 h at 37 °C [46]. The lysates were then heated for 3 min at the indicated range of temperatures (39 °C–72 °C, with 3 °C increments) using a thermal cycler, and the aggregated material was removed by a high-speed centrifugation at 17,000×g at 4 °C for 40 min or 15,000×g at 4 °C for 1 h. The soluble fractions were transferred to 96-well white opaque plates, and the fluorescence (580 nm excitation wavelength (20 nm excitation bandwidth), 635 nm emission wavelength (35 nm emission bandwidth)) was measured using a plate reader (TECAN Spark 10 M).

[7] = molecular target: Keap1 (Homo sapiens, UniProt Q14145); assay: Microscale thermophoresis (MST)
Sequence of Keap1 (Q14145 322-609): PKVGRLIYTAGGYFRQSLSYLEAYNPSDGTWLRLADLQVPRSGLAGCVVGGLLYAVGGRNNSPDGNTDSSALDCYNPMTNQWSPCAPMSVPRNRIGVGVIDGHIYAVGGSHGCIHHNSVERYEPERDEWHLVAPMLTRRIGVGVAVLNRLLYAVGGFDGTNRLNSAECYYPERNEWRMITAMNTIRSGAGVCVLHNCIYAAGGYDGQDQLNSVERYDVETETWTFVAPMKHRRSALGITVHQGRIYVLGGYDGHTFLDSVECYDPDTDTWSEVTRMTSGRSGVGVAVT
Experimental: Keap1 was labelled using the Protein Labelling Kit RED-NHS 2nd Generation (NanoTemper, München, Germany). Keap1 was diluted to 2 μM in RED-NHS Labelling Buffer. 10 μg of RED-NHS 2nd Generation labelling dye was freshly dissolved in 25 μL of DMSO to yield a concentration of 600 μM, then further diluted in RED-NHS Labelling Buffer to 300 μM. A volume of 20 μL of the 300 μM labelling dye was thoroughly mixed with 180 μL of 2 μM Keap1 and incubated at rt in a dark environment for 3 h. […] The sample was transferred to the centre of the resin bed in the B-column. 550 μL of Keap1 MST buffer was pipetted into the B-column and allowed to enter completely, followed by elution of the sample with 450 μL of Keap1 MST buffer and the flow-through was collected into a 1.5 mL Eppendorf tube. The collected sample was centrifuged at 15,000×g for 10 min at 4 °C to remove aggregates. Protein concentration in the collected sample was determined using the NanoDrop spectrophotometer. The sample was then tested in MST pre-test to evaluate the labelling quality.
Labelled Keap1 was diluted to 20 nM in Keap1 MST buffer prior to the reaction setup. […] An equal volume of 20 nM Keap1 was thoroughly mixed with each diluted sample and incubated for 30 min at rt. […] An equal volume of 2 nM Keap1 was mixed with each diluted sample and incubated at rt for 30 min. Incubated samples were loaded into Monolith NT.115 standard capillaries and measured using the Monolith NT.115^Pico instrument in triplicate. Parameters and measurements were set and controlled by the MO.Control software and collected datasets were analysed using the MO.Affinity Analysis software.

T1 sequence (Q14145 322-609): as above

- IC50 ([1]; 200 nM Keap1 Kelch domain, 1 nM FITC-β-DEETGEF-OH): 31 ± 2 nM
- FP IC50 fold lower than the bis-acid 2 ([1]; vs 2): ~2 fold
- FP IC50 fold lower than the bis-tetrazole 13 ([1]; vs 13): ~2.5 fold
- DSF ΔTi [3]: 19.4 ± 0.4 °C
- Kd ([7]; 1 nM Keap1): 2.1 ± 0.5 nM
- Kd ([7]; 10 nM Keap1): 24.3 ± 4.7 nM
Compound: COc1ccc(S(=O)(=O)N(CC(=O)O)c2ccc(N(Cc3nnn[nH]3)S(=O)(=O)c3ccc(OC)cc3)c3ccccc23)cc1 [Compound 25, N-(4-((N-((1H-tetrazol-5-yl)methyl)-4-methoxyphenyl)sulfonamido)naphthalen-1-yl)-N-((4-methoxyphenyl)sulfonyl)glycine]
- mRNA levels for Nrf2 target genes (NQO1, HO-1, GstP, Gclm, Gclc) [2]: increased
- specific enzyme activity of NQO1 ([4]; 48-h incubation): increased
- fold induction at 10 µM ([4]; Mus musculus, Hepa-1c1c7, 10 μM): 2.01 ± 0.05
- fold induction at 10 µM ([5]; 10 μM, 24 h): 1.48
- fold induction at 100 µM ([5]; 100 μM (highest test concentration), read-out: peak fold induction of luciferase activity): 5.66
- Target engagement in the cellular environment (CETSA) [6]: confirmed
